Results published in patent publication US11612567B2, “Ocular inserts comprising a covalently linked steroid dimer” (Ripple Therapeutics Corporation, priority 2018, dated 2023).

Tests used:
[1] = tested on: post-surgical inflammation and infection; test: Intracameral implants of Compound 1 and 9 in subjects receiving ocular surgery (Example 21); assay type: in vivo; conditions: intracameral implants of both compounds; dexamethasone and fusidic acid release over days to weeks to a few months
Description: Cylinders, pellets, or fibrous meshes of Compound 1 and 9 are formed using the methods described above. The implants are inserted intracamerally into subjects that are receiving an ocular surgical procedure.

[2] = Intravitreal cylinders for inflammatory or neovascularization conditions (Example 9); assay type: in vivo; conditions: cylinders injected into the vitreous humour
Experimental: Cylinders of Compound 1 are formed using methods described above. The cylinders are injected into the vitreous humour and release dexamethasone to the surrounding tissues including tissues in the anterior eye, the posterior eye, and surrounding tissues. […] The intravitreal implants release drug that may be used in subjects with diabetic macular edema, macular edema from retinal vein occlusion, uveitis, cystoid macular edema, post-surgical inflammation (e.g. cataract or glaucoma surgery), age-related macular degeneration, and other ocular conditions.

[3] = tested on: post-surgical inflammation in the eye; test: Intracameral fiber mesh or cylinder after surgery (Example 12); assay type: in vivo; conditions: steady release over several months, e.g., three months
Description: Fibers or cylinders are formed from Compound 1 according to the methods described above. The fibers are woven into a mesh and are placed into the eye of a subject having received surgery.

rat eyes = test: Surface erosion of intravitreal implants in rat eyes, fundus microscopy; assay type: in vivo; conditions: heat-molded cylinders injected intravitreally
Experimental: The cylinders were injected intravitreally into rat eyes.

[4] = tested on: tissue response to the device; test: Coating on a MIGS device inserted into the eye (Example 10); assay type: in vivo; conditions: drug released over months to years
Description: Coating of Compound 1 is applied onto a MIGS device as described in the methods above.

[5] = tested on: VEGF-induced retinal vascular leakage; test: VEGF-induced retinal vascular leakage after intravitreal implantation, fundus microscopy and fluorescein angiography; assay type: in vivo; conditions: Dutch belted rabbits, intravitreal 27 G and 30 G cylinders; VEGF at 1 week and 10 weeks post-implantation; versus sham injection
Experimental: The cylinders were extruded with 27 G and 30 G nozzles to get diameters ˜0.2 mm and ˜0.12 mm respectively. The cylinders were cut to different lengths, ETO gas sterilized, and injected intravitreally into the eyes of Dutch belted rabbits. VEGF was injected intravitreally at 1 week and 10 weeks post-implantation to induce retinal vascular leakage. Sham injection was used as a negative control.

[6] = 37° C.
Experimental: Heat-molded pellets from Compound 1 (˜1 mm×1 mm) were placed in 20 mL glass vials and 2 mL of release buffer (either 100% phosphate buffered saline (PBS), 1% fetal bovine serum (FBS) in PBS, or 100% FBS) was added. Samples were incubated at 37° C. on a shaker rotating at 115 rpm. After 1 day, 3 days, 7 days, and subsequently in alternating 3 and 4 day intervals (i.e., 1, 3, 7, 10, 14 days etc.), release buffer was sampled directly (PBS) or syringe filtered, proteins were precipitated with acetonitrile, and drug release products were extracted. The samples were analyzed by high performance liquid chromatography (HPLC) to quantify drug products. Cumulative drug release was calculated and plotted as a percentage of the total drug in each pellet released over time (FIG. 1E).
Drug release from the glassy state heat molded pellets was carried out in PBS and/or 100% FBS, as described in Example 1, for different time periods.
Drug release from the pellets (˜1 mm×1 mm and 1 mg of total mixture) was carried out in PBS as described in Example 1. Cumulative drug release was calculated and plotted as a percentage of the total drug released over time.

[7] = tested on: endotoxin-induced inflammation in the eye; test: Endotoxin (LPS)-induced inflammation in the eye after intravitreal implantation, OCT vitreal cell count and retinal thickness; assay type: in vivo; conditions: rat, intravitreal 23 G and 30 G implants; LPS 1 day (acute) or 60 days (sub-chronic) post-implantation
Experimental: The implants were loaded into 23 G and 30 G needles respectively and were sterilized by ethylene oxide (ETO) gas. An acute study evaluating only the 23 G heat molded implants was performed and a sub-chronic study evaluating both implants followed. […] Inflammation in the eye was induced using an intravitreal injection of the endotoxin lipopolysaccharide (LPS) 1-day post-implantation for the acute study and 60 days post-implantation for the sub-chronic study. […] Optical coherence tomography (OCT) was used to image the eyes (FIG. 6E) and inflammation was assessed by quantifying the number of cells in the vitreous humour and the thickness of the retinal tissue measured from the OCT images.

[8] = tested on: post-surgical inflammation in the eye; test: Schlemm's canal fiber or tube implant after surgery (Example 11); assay type: in vivo; conditions: release by surface erosion over weeks to months
Description: A fiber or tube of Compound 1 is formed using the methods described above.

intraocular pressure [9] = test: Suprachoroidal insert of Compound 1 in a subject with glaucoma (Example 14); assay type: in vivo; conditions: cylinder or tube as conduit from anterior chamber into suprachoroidal space; months to years
Description: A cylinder or tube of Compound 1 is formed using the methods described above. The implant is inserted into the eye of a subject with glaucoma to create a conduit from the anterior chamber into the suprachoroidal space.

[10] = Dexamethasone in the vitreous humour after intravitreal injection of cylinders; assay type: in vivo; conditions: New Zealand white rabbits, intravitreal cylinders 30 G×1 mm, 30 G×6 mm, 23 G×6 mm
Experimental: The cylinders were injected intravitreally into New Zealand white rabbits and dexamethasone was quantified in the vitreous humour at different time points.

[11] = tested on: inflammation or neovascularization; test: Micro- or nanoparticles injected into the suprachoroidal space (Example 13); assay type: in vivo; conditions: release over months to years
Experimental: Micro- or nanoparticles of Compound 1 are formed using the methods described above. The particles are injected into the suprachoroidal space of a subject with an ocular condition associated with inflammation or neovascularization or as an adjunctive therapy to reduce inflammation associated with ocular surgery.

intraocular pressure [12] = test: Intracameral implants of Compound 7 in subjects with glaucoma (Example 17); assay type: in vivo; conditions: intracameral cylinders, pellets or fibrous meshes; anecortave release by surface erosion over months to years
Description: Cylinders, pellets, or fibrous meshes of Compound 7 are formed using the methods described above. The implants are inserted intracamerally into subjects with glaucoma.

intraocular pressure [13] = test: Suprachoroidal insert of Compound 7 in a subject with glaucoma (Example 18); assay type: in vivo; conditions: cylinder or tube as conduit into suprachoroidal space, anecortave release; months to years
Description: A cylinder or tube of Compound 7 is formed using the methods described above. The implant is inserted into the eye of a subject with glaucoma to create a conduit from the anterior chamber into the suprachoroidal space.

[14] = tested on: post-surgical infection in the eye; test: Intracameral implants of Compound 9 in subjects receiving ocular surgery (Example 19); assay type: in vivo; conditions: fusidic acid release over days to weeks to a few months
Description: Cylinders, pellets, or fibrous meshes of Compound 9 are formed using the methods described above. The implants are inserted intracamerally into subjects that are receiving an ocular surgical procedure.

| Compound | post-surgical inflammation and infection [1] | duration of dexamethasone release by surface erosion [2] | inflammation in the eye [3] | erosion of the implant in the eye over time (fundus microscopy) (rat eyes) | tissue response and fibrosis [4] | retinal vascular leakage [5] | in vitro drug release, dose and duration ([6]; extruded cylinders 30 G×1 mm, 30 G×6 mm, 23 G×6 mm, PBS) | cumulative drug release plotted over time ([6]; glassy state heat molded pellets ~1 mm×1 mm, PBS and/or 100% FBS) | erosion of pellets over time (representative images) ([6]; heat-molded pellets ~1 mm×1 mm, 100% FBS) | inflammation in the eye (vitreal cell count and retinal thickness by OCT) [7] | post-surgical inflammation [8] | intraocular pressure (intraocular pressure [9]) | dexamethasone concentration in the vitreous humour over time [10] | inflammation or neovascularization [11] | intraocular pressure (intraocular pressure [12]) | intraocular pressure (intraocular pressure [13]) | post-surgical infection [14] |
| --- | --- | --- | --- | --- | --- | --- | --- | --- | --- | --- | --- | --- | --- | --- | --- | --- | --- |
| C[C@@H]1C[C@H]2[C@@H]3CCC4=CC(=O)C=C[C@]4(C)[C@@]3(F)[C@@H](O)C[C@]2(C)[C@@]1(O)C(=O)COC(=O)OCCOCCOCCOC(=O)OCC(=O)[C@@]1(O)[C@H](C)C[C@H]2[C@@H]3CCC4=CC(=O)C=C[C@]4(C)[C@@]3(F)[C@@H](O)C[C@@]21C [Compound 1, Dexamethasone-Triethylene Glycol-Dexamethasone] | reduce inflammation associated with the surgery and prevent infection | months to years | Inflammation in the eye is reduced | surface erosion of the implant | inhibit a tissue response to the device and reduce fibrosis | inhibited VEGF-induced retinal vascular leakage | roughly following surface erosion theory | mostly linearly | surface erosion over time | inhibit endotoxin-induced inflammation in the eye | prevent or reduce inflammation associated with the surgical procedure | reduce intraocular pressure | consistent dose of dexamethasone is released | reduces inflammation or neovascularization | – | – | – |
| Anecortave-Triethylene Glycol-Anecortave [Compound 7] | – | – | – | – | – | – | – | – | – | – | – | – | – | – | lower intraocular pressure in the eye | reduce intraocular pressure | – |
| Fusidic Acid-Triethylene Glycol-Fusidic Acid (carbonate ester) [Compound 9] | reduce inflammation associated with the surgery and prevent infection | – | – | – | – | – | – | – | – | – | – | – | – | – | – | – | prevent infection |
